21 compounds from ChEMBL document CHEMBL1149951, “Antileukaemic properties of 12-hydroxydaphnetoxin derivatives” (Bioorg Med Chem Lett, 1994) can be followed below.

Calls of active or inactive are those of the source. The calls are words filed in the database; no cut-off is given here.

For series [1], the system named is Mus musculus. Briefly: In vivo activity against mice infected with murine p388 lymphocytic leukemia cells at a ip dosage range of 0.05-1.6 mg/kg; Inactive. The format is functional, organism-based.
For series [2], the system named is Mus musculus. In words: In vivo activity against mice infected with murine p388 lymphocytic leukemia cells at a ip dose of 0.4 mg/kg. The format is functional. The settings on record: route intraperitoneal.
Series [3] deals with Mus musculus. Briefly: In vivo activity against mice infected with murine p388 lymphocytic leukemia cells at a ip dose of 0.8 mg/kg. The format is functional. The settings on record: route intraperitoneal.
In series [4] the test system is Mus musculus. Briefly: In vivo activity against mice infected with murine p388 lymphocytic leukemia cells at a ip dose of 0.05 mg/kg. Type of series: functional. The settings on record: route intraperitoneal.
Series [5] concerns Mus musculus. In words: In vivo activity against mice infected with murine p388 lymphocytic leukemia cells at a ip dose of 0.2 mg/kg. The format is functional. The conditions noted are these: route intraperitoneal.
In series [6] the test system is Mus musculus. In words: In vivo activity against mice infected with murine p388 lymphocytic leukemia cells at a ip dose of 0.1 mg/kg. Type of series: functional. The settings on record: route intraperitoneal.
Series [7] is described as follows: In vivo activity against mice infected with murine p388 lymphocytic leukemia cells at a ip dose of 0.8 mg/kg; Toxic. The format is toxicity, organism-based. Also noted: dose 0.8 mg/kg, route intraperitoneal. The conditions noted are these: mouse.
The nature of series [8]: In vivo activity against mice infected with murine p388 lymphocytic leukemia cells at a ip dose of 0.4 mg/kg; Toxic. Type of series: toxicity, organism-based. Also noted: dose 0.4 mg/kg, route intraperitoneal. The settings on record: mouse.
Series [9] in a line: In vivo activity against mice infected with mice infected with murine p388 lymphocytic leukemia cells at a ip dose of 0.4 mg/kg; Toxic. The format is toxicity, organism-based. Also noted: dose 0.4 mg/kg, route intraperitoneal. The settings on record: mouse.
Series [10] is described as follows: In vivo activity was against mice infected with murine p388 lymphocytic leukemia cells at a ip dose of 0.8 mg/kg; Toxic. The format is toxicity, organism-based. Also noted: dose 0.8 mg/kg, route intraperitoneal. The settings on record: mouse.
Series [11] concerns Mus musculus. In words: In vivo activity against mice infected with murine p388 lymphocytic leukemia cells at a ip dose of 0.2 mg/kg; Toxic. Type of series: functional, organism-based. Also noted: dose 0.2 mg/kg.

For `C=C(C)C12OC3(c4ccccc4)OC1[C@@H]1[C@@H]4O[C@@]45COC(C)(C)O[C@H]5[C@]4(O)C(=O)C=C[C@@]4(C)C1(O3)[C@H](C)[C@H]2OC(=O)c1ccccc1` (stereo partly drawn), the ILS result with Mus musculus [1] was “inactive”.

In turn, `CC(C)C12OC3(c4ccccc4)OC1[C@@H]1[C@@H]4O[C@]4(CO)[C@@H](O)[C@]4(O)C(=O)CC[C@@]4(C)C1(O3)[C@H](C)[C@H]2OC(=O)CCc1ccccc1` (stereo partly drawn) gave an ILS at 0.4 mg/kg with Mus musculus [2] of 25%. This compound also showed an ILS at 0.8 mg/kg with Mus musculus [3] of 30%. For the same compound, the ILS at 0.05 mg/kg in the series on Mus musculus [4] was less than 20%. Moreover, the ILS at 0.2 mg/kg in the series with Mus musculus [5] was less than 20%. The ILS at 0.1 mg/kg in the series with Mus musculus [6] was less than 20%.

As to `C=C(C)C12OC3(c4ccccc4)OC1[C@@H]1[C@@H]4O[C@]4(CO)[C@@H](O)[C@]4(O)C(=O)C=C[C@@]4(C)C1(O3)[C@H](C)[C@H]2OC(=O)/C=C/C=C/CCCCC` (stereo partly drawn), the ILS result in series [7] and in series [8] was “Toxic” each time. The compound also came in with an ILS at 0.05 mg/kg with Mus musculus [4] of 33%. Moreover, the ILS at 0.2 mg/kg with Mus musculus [5] was 42%. In the series with Mus musculus [6], this compound showed an ILS at 0.1 mg/kg of 33%.

`C=C(C)C12OC3(c4ccccc4)OC1[C@@H]1[C@@H]4O[C@]4(CO)[C@@H](O)[C@]4(O)C(=O)C=C[C@@]4(C)C1(O3)[C@H](C)[C@H]2O` (stereo partly drawn): the ILS entry with Mus musculus [1] was “inactive”.

In the series on Mus musculus [2], `CCCCCCCCCC(=O)O[C@@H]1[C@@H](C)C23OC4(c5ccccc5)OC([C@@H]2[C@@H]2O[C@]2(CO)[C@@H](O)[C@]2(O)C(=O)C=C[C@@]32C)C1(C(C)C)O4` (stereo partly drawn) displayed an ILS at 0.4 mg/kg of 30%. The compound also registered an ILS at 0.8 mg/kg with Mus musculus [3] of 27%. In addition, the ILS at 0.05 mg/kg in the series with Mus musculus [4] was less than 20%. The ILS at 0.2 mg/kg with Mus musculus [5] was less than 20%. Moreover, the ILS at 0.1 mg/kg with Mus musculus [6] is less than 20%.

Regarding `C=C(C)C12OC3(c4ccccc4)OC1[C@@H]1[C@@H]4O[C@@]45COC(C)(C)O[C@H]5[C@]4(O)C(=O)C=C[C@@]4(C)C1(O3)[C@H](C)[C@H]2OC(=O)/C=C/C=C/CCCCC` (stereo partly drawn), in the series on Mus musculus [1], the ILS result is “inactive”.

As for `C=C(C)C12OC3(c4ccccc4)OC1[C@@H]1[C@@H]4O[C@]4(CO)[C@@H](O)[C@]4(O)C(=O)C=C[C@@]4(C)C1(O3)[C@H](C)[C@H]2OC(=O)/C=C/c1ccccc1` (stereo partly drawn), the ILS result in [7] and in [9] was “Toxic” each time. In the series on Mus musculus [4], this compound came in with an ILS at 0.05 mg/kg of less than 20%. In the series with Mus musculus [5], this compound showed an ILS at 0.2 mg/kg of 73%. The compound further had an ILS at 0.1 mg/kg in the series on Mus musculus [6] of 60%.

`C=C(C)C12OC3(c4ccccc4)OC1[C@@H]1[C@@H]4O[C@]4(CO)[C@@H](O)[C@]4(O)C(=O)C=C[C@@]4(C)C1(O3)[C@H](C)[C@H]2OC(=O)CCCCCCCCC` (stereo partly drawn) had an ILS at 0.4 mg/kg in the series with Mus musculus [2] of 42%. Further, the ILS at 0.8 mg/kg in the series on Mus musculus [3] is 43%. In the series on Mus musculus [4], the ILS at 0.05 mg/kg was less than 20%. The compound further yielded an ILS at 0.2 mg/kg in the series on Mus musculus [5] of less than 20%. The compound also showed an ILS at 0.1 mg/kg with Mus musculus [6] of less than 20%.

For the compound `C=C(C)C12OC3(c4ccccc4)OC1[C@@H]1[C@@H]4O[C@@]45COC(C)(C)O[C@H]5[C@]4(O)C(=O)C=C[C@@]4(C)C1(O3)[C@H](C)[C@H]2OC(=O)/C=C/c1ccccc1` (stereo partly drawn), in the series with Mus musculus [1], the ILS entry is “inactive”.

Regarding `C=C(C)C12OC3(c4ccccc4)OC1[C@@H]1[C@@H]4O[C@]4(CO)[C@@H](O)[C@]4(O)C(=O)C=C[C@@]4(C)C1(O3)[C@H](C)[C@H]2OC(=O)/C=C/C=C/c1ccccc1` (stereo partly drawn), the ILS entry in [10] and in series [8] was “Toxic” in each case. Further, the ILS at 0.05 mg/kg in the series with Mus musculus [4] worked out at 33%. In the series on Mus musculus [5], this compound came in with an ILS at 0.2 mg/kg of 67%. Further, in the series with Mus musculus [6], the ILS at 0.1 mg/kg stood at 33%.

As to `C=C(C)C12OC3(c4ccccc4)OC1[C@@H]1[C@@H]4O[C@@]45COC(C)(C)O[C@H]5[C@]4(O)C(=O)C=C[C@@]4(C)C1(O3)[C@H](C)[C@H]2OC(=O)CCCCCCCCC` (stereo partly drawn), the ILS entry in the series with Mus musculus [1] is “inactive”.

For `C=C(C)C12OC3(c4ccccc4)OC1[C@@H]1[C@@H]4O[C@@]45COC(C)(C)O[C@H]5[C@]4(O)C(=O)C=C[C@@]4(C)C1(O3)[C@H](C)[C@H]2OC(=O)/C=C/C=C/C=C/CCC` (stereo partly drawn), the ILS entry with Mus musculus [1] is “inactive”.

With `C=C(C)C12OC3(c4ccccc4)OC1[C@@H]1[C@@H]4O[C@@]45COC(C)(C)O[C@H]5[C@]4(O)C(=O)C=C[C@@]4(C)C1(O3)[C@H](C)[C@H]2O` (stereo partly drawn), in the series with Mus musculus [1], the ILS result was “inactive”.

`C=C(C)C12OC3(c4ccccc4)OC1[C@@H]1[C@@H]4O[C@]4(CO)[C@@H](O)[C@]4(O)C(=O)C(C)=C[C@H]4C1(O3)[C@H](C)[C@H]2OC(=O)/C=C/C=C/C=C/CCC` (stereo partly drawn) [GNIDITRIN]: the ILS result (in the series on Mus musculus [11]; in series [7]; in series [8]) was “Toxic” in each case. The increase in lifespan (ILS) at 0.05 mg/kg with Mus musculus [4] was determined as 44%. Besides, in the series with Mus musculus [6], the ILS at 0.1 mg/kg was found to be 68%.

As for `C=C(C)C12OC3(c4ccccc4)OC1[C@@H]1[C@@H]4O[C@@]45COC(C)(C)O[C@H]5[C@]4(O)C(=O)C=C[C@@]4(C)C1(O3)[C@H](C)[C@H]2OC(=O)/C=C/C=C/c1ccccc1` (stereo partly drawn), the ILS result in the series on Mus musculus [1] was “inactive”.

In the case of `CC(C)C12OC3(c4ccccc4)OC1[C@@H]1[C@@H]4O[C@]4(CO)[C@@H](O)[C@]4(O)C(=O)CC[C@@]4(C)C1(O3)[C@H](C)[C@H]2OC(=O)CCCCCCCCc1ccccc1` (stereo partly drawn), the ILS at 0.4 mg/kg in the series on Mus musculus [2] is 25%. This compound also returned an ILS at 0.8 mg/kg in the series on Mus musculus [3] of 25%. Further, in the series with Mus musculus [4], the ILS at 0.05 mg/kg was less than 20%. In the series on Mus musculus [5], the ILS at 0.2 mg/kg is less than 20%. The ILS at 0.1 mg/kg in the series on Mus musculus [6] is less than 20%.

The compound `CC(C)C12OC3(c4ccccc4)OC1[C@@H]1[C@@H]4O[C@]4(CO)[C@@H](O)[C@]4(O)C(=O)C=C[C@@]4(C)C1(O3)[C@H](C)[C@H]2OC(=O)CCCCc1ccccc1` (stereo partly drawn) registered an ILS at 0.4 mg/kg in the series with Mus musculus [2] of 43%. Also, in series [7], the ILS entry was “Toxic”. Also, the ILS at 0.05 mg/kg in the series on Mus musculus [4] was less than 20%. The ILS at 0.2 mg/kg in the series with Mus musculus [5] amounted to 43%. The compound also came in with an ILS at 0.1 mg/kg in the series on Mus musculus [6] of less than 20%.

For the compound `CC(C)C12OC3(c4ccccc4)OC1[C@@H]1[C@@H]4O[C@]4(CO)[C@@H](O)[C@]4(O)C(=O)CC[C@@]4(C)C1(O3)[C@H](C)[C@H]2OC(=O)CCCCc1ccccc1` (stereo partly drawn), the ILS at 0.4 mg/kg in the series with Mus musculus [2] came out at 29%. Further, the ILS at 0.8 mg/kg in the series with Mus musculus [3] came to 27%. The same compound had an ILS at 0.05 mg/kg in the series with Mus musculus [4] of less than 20%. In the series on Mus musculus [5], this compound came in with an ILS at 0.2 mg/kg of less than 20%. This compound displayed an ILS at 0.1 mg/kg in the series on Mus musculus [6] of less than 20%.

The compound `CC(C)C12OC3(c4ccccc4)OC1[C@@H]1[C@@H]4O[C@]4(CO)[C@@H](O)[C@]4(O)C(=O)C=C[C@@]4(C)C1(O3)[C@H](C)[C@H]2OC(=O)c1ccccc1` (stereo partly drawn) showed an ILS at 0.4 mg/kg in the series on Mus musculus [2] of 48%. The ILS result in series [7] is given as “Toxic”. In the series on Mus musculus [4], the ILS at 0.05 mg/kg is less than 20%. Further, the ILS at 0.2 mg/kg in the series on Mus musculus [5] amounted to 42%. In addition, the ILS at 0.1 mg/kg with Mus musculus [6] was 30%.

For the compound `C=C(C)C12OC3(c4ccccc4)OC1[C@@H]1[C@@H]4O[C@]4(CO)[C@@H](O)[C@]4(O)C(=O)C=C[C@@]4(C)C1(O3)[C@H](C)[C@H]2OC(=O)c1ccccc1` (stereo partly drawn), the ILS at 0.4 mg/kg in the series with Mus musculus [2] stood at 40%. In addition, the increase in life span (ILS) entry in series [7] is “Toxic”. Also, in the series with Mus musculus [4], the ILS at 0.05 mg/kg is less than 20%. In addition, the ILS at 0.2 mg/kg with Mus musculus [5] was determined as 32%. In the series on Mus musculus [6], this compound yielded an ILS at 0.1 mg/kg of less than 20%.

As for `CC(C)C12OC3(c4ccccc4)OC1[C@@H]1[C@@H]4O[C@]4(CO)[C@@H](O)[C@]4(O)C(=O)C=C[C@@]4(C)C1(O3)[C@H](C)[C@H]2OC(=O)CCc1ccccc1` (stereo partly drawn), the increase in lifespan (ILS) at 0.4 mg/kg in the series with Mus musculus [2] stood at 40%. The ILS entry in [7] is reported as “Toxic”. In the series with Mus musculus [4], the ILS at 0.05 mg/kg was less than 20%. For the same compound, in the series with Mus musculus [5], the ILS at 0.2 mg/kg was found to be 38%. In the series on Mus musculus [6], the ILS at 0.1 mg/kg was less than 20%.

The ILS is the gain in survival time of treated over control animals, in per cent.
